Patent US20030232340A1 (priority 2002, published 2003)

Target: T1, Concanavalin A (Canavalia ensiformis, UniProt P02866)
T1 construct: purchased Sigma C-5275
Test: Homogeneous cubic phase dispersion assay: displacement of biotinylated mannotriose-avidin/HRP, Dextran Blue detection
Assay type: binding
Settings: 500 microliters of saturated solution added to 3.0 ml
Protocol: Experimental Results—A cubic phase was first prepared by mixing 0.752 grams of Pluronic P123 (an insoluble surfactant), 0.705 grams of linalool, and 0.703 grams of water. An amount of 1.005 grams of this cubic phase was put in a glass flask together with 0.054 grams of the rhamnolipid surfactant JBR-99 (Jeneil Biosurfactant, Inc.) and 35 ml of pH 4.5 acetate buffer containing 4 mM MnCl2 and 4 mM CaCl2. The flask was then sonicated to disperse the cubic phase. Following this, the dispersion was microfluidized in a model 110S Microfluidizer (Microfluidics, Inc.) to a particle size that was fine enough where the absorbance measured on an Ultrospec 3000 UV-Vis spectrometer, at a wavelength of 620 nm, was about 0.2 absorbance units.
The following reagents were then added to 2 ml of the cubic phase dispersion: […]
After the addition of the Dextran Blue-based Detection System, absorbance readings at 620 nm were monitored continuously. After the readings stabilized at 0.40 absorbance units, 500 microliters of Displacement Solution were added. […]
Upon addition of this alpha methylmannoside—the analyte—the absorbance dropped from 0.40 to 0.26 absorbance units. […] The majority of the decrease in absorbance was due to the enzymatic action of displaced HRP on the Dextran Blue.

In the case of COC1O[C@H](CO)[C@@H](O)[C@H](O)[C@@H]1O (stereo partly drawn) [alpha methylmannoside], the “decrease in absorbance at 620 nm” value (14% expected from dilution alone) is reported as 35% and the “absorbance at 620 nm after addition of analyte” value (reading before addition 0.40) is reported as 0.26 absorbance units.
